Data reported in patent publication US9505740B2, “Cyclic amine derivative and pharmaceutical use thereof” (Toray Industries, Inc., priority 2013, dated 2016).
Where a name gives a salt, the structure may show the parent alone.

Tests used:
[1] = tested on: mouse partial sciatic nerve ligation model; test: Mouse partial sciatic nerve ligation model (Seltzer model), von Frey test; assay type: in vivo; settings: oral administration; Example 8 10 mg/kg (Day 7), Example 38 0.1 to 10 mg/kg (Day 8), pregabalin 10 mg/kg; 1, 2 and 3 hours after administration; vs partial sciatic nerve ligation+distilled water, p<0.05
Source text: Using a partial sciatic nerve ligation model (Seltzer model) in mice by which neuropathic pain can be evaluated, the analgesic action of a cyclic amine derivative (I) or a prodrug thereof or a pharmacologically acceptable salt thereof was investigated.
As the cyclic amine derivative (I) or a pharmacologically acceptable salt thereof, the compounds of Example 2, 4, 6, 8, 10, 12, 13, 15, 18, 22, 25, 27, 29, 31, 33, 66, 68 or 70 was used for evaluation. As the prodrug of the cyclic amine derivative (I) or a pharmacologically acceptable salt thereof, the compound of Example 38 was used for evaluation. The compound of Example 38 is a hydrochloride of a prodrug obtained by esterifying the carboxyl group of the compound of Example 39 with an ethyl group.
The mouse partial sciatic nerve ligation model was prepared in accordance with the method of Seltzer et al. (Malmberg et al., Pain, vol. 76, p. 215-222, 1998). • Slc: ICR mice (5 weeks old, male; from Japan SLC, Inc.) or Crl: CD1 (ICR) mice (5 weeks old, male; from CHARLES RIVER LABORATORIES JAPAN, INC.) were anesthetized with sodium pentobarbital (70 mg/kg, intraperitoneal administration). The sciatic nerve at the femoral region of the right hind paw of each mouse was exposed and triply ligated tightly with silk suture of 8-0 (from NATSUME […]., LTD.) under a stereomicroscope so that only half thickness of the nerve was trapped in the ligature. A group of mice thus treated was designated as a partial sciatic nerve ligation group. A group of mice whose sciatic nerve was just exposed and not ligated was designated as a sham surgery group.
Evaluation of neuropathic pain (hereinafter referred to as von Frey test) was performed as follows. Mice were conditioned for at least two hours in an acrylic cage for measurement (from NATSUME […]. LTD.) placed on a wire net. […]

[2] = tested on: fibromyalgia syndrome model rats; test: Fibromyalgia syndrome model in rats (acidic saline), allodynia by von Frey filament; assay type: in vivo, rat; settings: vs acidic saline-vehicle group
Source text: Using a fibromyalgia syndrome model in rats by which fibromyalgia syndrome can be evaluated, the analgesic action of a cyclic amine derivative (I) or a prodrug thereof or a pharmacologically acceptable salt thereof was investigated.
As the cyclic amine derivative (I) or a pharmacologically acceptable salt thereof, the compound of Example 13 was used for evaluation. As the prodrug of a cyclic amine derivative (I) or a pharmacologically acceptable salt thereof, the compound of Example 38 was used for evaluation. The compound of Example 38 is a hydrochloride of a prodrug obtained by esterifying the carboxyl group of the compound of Example 39 with an ethyl group.
To prepare a fibromyalgia syndrome model rat (Sluka et al., Journal of Pharmacology and Experimental Therapeutics, vol. 302, p. 1146-50, 2002; Nagakura et al., Pain, vol. 146, p. 26-33, 2009; Sluka et al., Pain, vol. 146, p. 3-4, 2009), which is generally employed widely in basic research for fibromyalgia syndrome, acidic saline (100 μL) adjusted to pH4.0 was intramuscularly injected to the gastrocnemius muscle of the right hind paw of Crl: CD(SD) rat (6 to 7 weeks old, male; from CHARLES RIVER LABORATORIES JAPAN, INC.) under continuous inhalation anesthesia with isoflurane, twice (once in each day of Day 1 and Day 6, wherein Day 1 was the date on which the acidic saline was initially administrated). The rats thus prepared were raised in a breeding room controlled at an indoor temperature of 21 to 25° C. and an indoor humidity of 40 to 70% under the conditions of voluntary intake of food and water. In the same manner, rats to which physiological saline in place of acidic saline was intramuscularly injected were raised. The rats thus raised and not afflicted with fibromyalgia syndrome (“physiological saline-vehicle” group in FIGS. 23 and 24) were also used in the experiment.
Day 7 after the initial administration of acidic saline, allodynia in each rat was measured. […] Note that, measurement of allodynia was performed by use of a von Frey filament (from North Coast Medical) in accordance with the method described in a known literature (Chaplan et al., Journal of Neuroscience Methods, vol. 53, p. 55-63, 1994). […]
The compound of Example 13 (3 and 10 mg/kg) was dissolved in physiological saline and then administered (intravenous administration) to fibromyalgia syndrome model rats through the tail vein (“acidic saline—the compound of Example 13” in FIG. 23). […] In thirty minutes after the intravenous administration, allodynia in individual rats was measured to evaluate an analgesic action. […]

[3] = tested on: mouse partial sciatic nerve ligation model; test: Mouse partial sciatic nerve ligation model (Seltzer model), von Frey test; assay type: in vivo; settings: intravenous administration (tail vein), Day 7; Examples 2, 4: 0.1 to 10 mg/kg; 13: 0.01 to 1 mg/kg; 18, 22: 0.1 and 1 mg/kg; 25, 27, 29, 31, 33, 66, 68, 70: 0.1 mg/kg; pregabalin 1 or 3 mg/kg; vs physiological saline group
[4] = oral administration, 10 mg/kg, one hour and three hours after administration, p<0.05

Row | SMILES | analgesic action, total score in the von Frey test [1] | allodynia, 50% response threshold (mean value of the right hind paw and the left hind paw) [2, 4] | analgesic action, total score in the von Frey test [3] | allodynia, 50% response threshold (mean value of the right hind paw and the left hind paw) ([2]; intravenous administration, Example 13 3 and 10 mg/kg, pregabalin 10 mg/kg, 30 minutes after administration)
1 | Cn1ccnc1CCC(=O)N1CCC(N)CC1 [Example 8, 1-(4-aminopiperidin-1-yl)-3-(1-methyl-1H-imidazol-2-yl)propan-1-one hydrochloride] | statistically significant analgesic action | – | – | –
2 | CCOC(=O)Cn1ccnc1CCC(=O)N1CCC(N(C)C)CC1 [Example 38, ethyl 2-(2-(3-(4-(dimethylamino)piperidin-1-yl)-3-oxopropyl)-1H-imidazol-1-yl)acetate hydrochloride] | statistically significant analgesic action | statistically significantly improved | – | –
3 | CC(C)C[C@H](CN)CC(=O)O [pregabalin, reference compound] | statistically significant analgesic action | statistically significantly improved | statistically significant analgesic action | statistically significantly improved
